Laboratory results taken from patent US7932270B2 (Cytokinetics, Inc., priority 2006, dated 2011).

These molecules were tested against T1, chicken gizzard smooth muscle myosin subfragment-1 chemically crosslinked to cardiac or skeletal actin (Gallus gallus, UniProt P10587) (assay: Smooth muscle myosin ATPase dose response assay (pyruvate kinase/horseradish peroxidase/pyruvate oxidase-coupled, amplex red fluorescence)). Details: read-out: IC50 Arithmetic Mean.
T1 construct: chicken gizzard smooth muscle myosin subfragment-1; from tissue; host or cells: chicken gizzard
Assay type: biochemical
Description: In Vitro Model of Dose Dependent Smooth Muscle Myosin ATPase Modulation
Screening assays were performed using a pyruvate kinase and lactate dehydrogenase-coupled ATPase assay containing the following reagents: Potassium PIPES (50 mM), MgCl2 (3 mM), KCl (100 mM), ATP (0.15 mM), DTT (1 mM), BSA (0.1 mg/ml), NADH (0.5 mM), PEP (1.5 mM), pyruvate kinase (4 U/ml), lactate dehydrogenase (8 U/ml), and antifoam (50 ppm) (concentrations expressed are final assay concentrations). The pH was adjusted to 6.80 at 22° C. by addition of potassium hydroxide. Lead optimization assays were performed with a more sensitive pyruvate kinase/horseradish peroxidase/pyruvate oxidase-coupled ATPase assay containing the following reagents: Potassium PIPES (12 mM), MgCl2 (2 mM), KCl (100 mM), ATP (0.15 mM), BSA (0.05 mg/ml), potassium phosphate (2 mM), amplex red (0.1 mM), PEP (0.1 mM), pyruvate kinase (4 U/ml), horseradish peroxidase (0.5 U/ml), pyruvate oxidase (0.5 U/ml), and antifoam (50 ppm) (concentrations expressed are final assay concentrations). The pH was adjusted to 7.00 at 22° C. by addition of potassium hydroxide.
The protein components specific to this assay are chicken gizzard smooth muscle myosin subfragment-1 that has been chemically crosslinked to either cardiac or skeletal actin using an excess of 1-Ethyl-3-[3-dimethylaminopropyl]carbodiimide hydrochloride and N-hydroxysuccinimide. The exact concentration of the crosslinked smooth muscle myosin in the assay is determined empirically, by titration to achieve a desired rate of ATP hydrolysis. The concentration varies between protein preparations due to variations in the fraction of active molecules in each preparation.
Compound dose response assays are performed by first preparing a dilution series of test compound, each with an assay mixture containing potassium PIPES, MgCl2, KCl, ATP, BSA, potassium phosphate, amplex red, PEP, crosslinked smooth muscle actomyosin (subfragment-1), antifoam, and water. The assay is started by adding an equal volume of solution containing potassium Pipes, MgCl2, KCl, BSA, potassium phosphate, pyruvate kinase, horseradish peroxidase, pyruvate oxidase, antifoam, and water. ATP hydrolysis is monitored by measuring the fluorescence of amplex red (excitation at 480 nm, emission at 615 nm). The resulting dose response curve is fit by the 4 parameter equation y=Bottom+((Top-Bottom)/(1+((IC50/X)^Hill))). The IC50 is defined as the concentration at which ATPase activity is midway between the top and bottom of the dose response curve.

T1 sequence (P02607 2-151): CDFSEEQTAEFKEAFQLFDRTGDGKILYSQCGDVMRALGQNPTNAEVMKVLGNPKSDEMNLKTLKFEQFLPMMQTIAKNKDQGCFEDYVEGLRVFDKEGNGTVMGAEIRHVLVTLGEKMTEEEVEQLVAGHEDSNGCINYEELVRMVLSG
T1 sequence (P10587 84-789): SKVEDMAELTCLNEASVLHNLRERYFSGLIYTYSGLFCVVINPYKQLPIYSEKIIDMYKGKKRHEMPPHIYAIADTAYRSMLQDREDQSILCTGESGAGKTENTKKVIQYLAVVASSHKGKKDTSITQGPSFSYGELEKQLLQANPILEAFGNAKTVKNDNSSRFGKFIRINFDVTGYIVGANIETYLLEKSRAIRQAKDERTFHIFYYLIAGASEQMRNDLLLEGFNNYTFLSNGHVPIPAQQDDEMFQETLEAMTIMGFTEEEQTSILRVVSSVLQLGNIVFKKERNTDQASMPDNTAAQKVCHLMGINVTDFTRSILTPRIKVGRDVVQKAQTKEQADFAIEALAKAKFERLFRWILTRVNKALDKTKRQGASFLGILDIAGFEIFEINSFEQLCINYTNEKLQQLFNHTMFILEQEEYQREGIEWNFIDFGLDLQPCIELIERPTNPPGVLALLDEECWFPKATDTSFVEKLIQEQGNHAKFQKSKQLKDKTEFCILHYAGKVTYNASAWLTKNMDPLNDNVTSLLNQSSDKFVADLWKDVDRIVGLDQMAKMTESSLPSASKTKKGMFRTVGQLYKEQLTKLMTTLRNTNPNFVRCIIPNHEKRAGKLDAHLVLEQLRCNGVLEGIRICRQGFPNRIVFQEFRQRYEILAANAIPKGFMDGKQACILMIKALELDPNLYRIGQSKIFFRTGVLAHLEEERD

IC50 | Structure (SMILES)
15 nM | N#Cc1ccccc1-c1ccc(C(=O)NC[C@H]2CCCC(=O)N2)c(NCCc2cccc(F)c2)n1 [N-[((2R)-6-oxo(2-piperidyl))methyl](6-(2-cyanophenyl)-2-{[2-(3-fluorophenyl)ethyl]amino}(3-pyridyl))carboxamide]
1450 nM | CS(=O)(=O)N1CCC[C@@H]1CNC(=O)c1ccc(-c2ccccc2C#N)nc1NCCc1cccc(F)c1 [N-{[(2R)-1-(methylsulfonyl)pyrrolidin-2-yl]methyl}(6-(2-cyanophenyl)-2-{[2-(3-fluorophenyl)ethyl]amino}(3-pyridyl))carboxamide]
11400 nM | CCCNc1nc(-c2ccccc2)ccc1C(=O)NCc1cccnc1 [[6-phenyl-2-(propylamino)(3-pyridyl)]-N-(3-pyridylmethyl)carboxamide]
102 nM | CNC(=O)CNC(=O)c1ccc(-c2ccccc2C#N)nc1NCCc1cccc(F)c1 [2-[(6-(2-cyanophenyl)-2-{[2-(3-fluorophenyl)ethyl]amino}(3-pyridyl))carbonylamino]-N-methylacetamide]
376 nM | N#Cc1ccccc1-c1ccc(C(=O)NC[C@H]2CCC(=O)N2CCCCN2C(=O)c3ccccc3C2=O)c(NCCc2cccc(F)c2)n1 [N-({(2R)-1-[4-(1,3-dioxobenzo[c]azolin-2-yl)butyl]-5-oxopyrrolidin-2-yl}methyl)(6-(2-cyanophenyl)-2-{[2-(3-fluorophenyl)ethyl]amino}(3-pyridyl))carboxamide]
48 nM | N#Cc1ccccc1-c1ccc(C(=O)NC[C@H]2CCCCN2C(=O)[C@@H](N)CCCN)c(NCCc2cccc(F)c2)n1 [N-{[(2R)-1-((2S)-2,5-diaminopentanoyl)(2-piperidyl)]methyl}(6-(2-cyanophenyl)-2-{[2-(3-fluorophenyl)ethyl]amino}(3-pyridyl))carboxamide]
3250 nM | C[C@@H](CNC(=O)c1ccc(-c2ccccc2C#N)nc1NCCc1cccc(F)c1)N(C)C(=O)CN
14 nM | N#Cc1cscc1-c1ccc(C(=O)NCc2cccnc2)c(NCCc2cccc(F)c2)n1 [(6-(4-cyano(3-thienyl))-2-{[2-(3-fluorophenyl)ethyl]amino}(3-pyridyl))-N-(3-pyridylmethyl)carboxamide]
61 nM | C[C@@H](CO)CNC(=O)c1ccc(-c2ccccc2C#N)nc1NCCc1cccc(F)c1 [N-((2R)-3-hydroxy-2-methylpropyl)(6-(2-cyanophenyl)-2-{[2-(3-fluorophenyl)ethyl]amino}(3-pyridyl))carboxamide]
3740 nM | C=CCNC(=O)c1ccc(-c2ccccc2)nc1NCCc1cccc(C)c1 [(2-{[2-(3-methylphenyl)ethyl]amino}-6-phenyl(3-pyridyl))-N-prop-2-enylcarboxamide]
39500 nM | NCc1ccc(-c2ccccc2)nc1NCCc1cccc(F)c1 [[3-(aminomethyl)-6-phenyl(2-pyridyl)][2-(3 fluorophenyl)ethyl]amine]
19 nM | NCc1cccc(CNC(=O)c2ccc(-c3ccccc3)nc2NCCc2cccc(F)c2)n1 [N-{[6-(aminomethyl)(2-pyridyl)]methyl}(2-{[2-(3-fluorophenyl)ethyl]amino}-6-phenyl(3-pyridyl))carboxamide]
7410 nM | N#Cc1ccccc1-c1ccc(C(=O)N[C@H](CCCN)C(N)=O)c(NCCc2cccc(F)c2)n1 [N-((1R)-4-amino-1-carbamoylbutyl)(6-(2-cyanophenyl)-2-{[2-(3-fluorophenyl)ethyl]amino}(3-pyridyl))carboxamide]
2780 nM | N#Cc1ccccc1-c1ccc(C(=O)NC[C@H]2CNCCN2C(=O)CN)c(NCCc2cccc(F)c2)n1 [N-{[(2R)-1-(2-aminoacetyl)piperazin-2-yl]methyl}(6-(2-cyanophenyl)-2-{[2-(3-fluorophenyl)ethyl]amino}(3-pyridyl))carboxamide]
136 nM | Cn1cc(-c2ccc(C(=O)NCc3cccc(CN)n3)c(NCCc3cccc(F)c3)n2)cn1 [N-{[6-(aminomethyl)(2-pyridyl)]methyl}(2-{[2-(3-fluorophenyl)ethyl]amino}-6-(1-methylpyrazol-4-yl)(3-pyridyl))carboxamide]
11 nM | N#Cc1ccccc1-c1ccc(C(=O)NCc2cccc(CCN)n2)c(NCCc2cccc(F)c2)n1 [N-{[6-(2-aminoethyl)(2-pyridyl)]methyl}(6-(2-cyanophenyl)-2-{[2-(3-fluorophenyl)ethyl]amino}(3-pyridyl))carboxamide]
90 nM | NCCC(=O)N1CCC[C@@H]1CNC(=O)c1cc(F)c(-c2cn[nH]c2)nc1NCCc1cccc(F)c1 [N-{[(2R)-1-(3-aminopropanoyl)pyrrolidin-2-yl]methyl}(5-fluoro-2-{[2-(3-fluorophenyl)ethyl]amino}-6-pyrazol-4-yl(3-pyridyl))carboxamide]
117 nM | O=C(NCc1cccc(Br)n1)c1ccc(-c2cn[nH]c2)nc1NCCc1cccc(F)c1 [N-[(6-bromo(2-pyridyl))methyl](2-{[2-(3-fluorophenyl)ethyl]amino}-6-pyrazol-4-yl(3-pyridyl))carboxamide]
6150 nM | O=C(NCc1ncc[nH]1)c1ccc(-c2ccccc2)nc1NCCc1ccccn1 [N-(imidazol-2-ylmethyl){6-phenyl-2-[(2-(2-pyridyl)ethyl)amino](3-pyridyl)}carboxamide]
3500 nM | N#Cc1ccccc1-c1ccc(C(=O)NCC2CCCN2CCCN)c(NCCc2cccc(F)c2)n1 (stereo not drawn)
32 nM | N#Cc1ccccc1-c1ccc(C(=O)NCc2ccnn2CCN)c(NCCc2cccc(F)c2)n1 [N-{[1-(2-aminoethyl)pyrazol-5-yl]methyl}(6-(2-cyanophenyl)-2-{[2-(3-fluorophenyl)ethyl]amino}(3-pyridyl))carboxamide]
86000 nM | COC(=O)[C@H](C)CNC(=O)c1cc(F)c(-c2cnn(C)c2)nc1N [methyl (2R)-3-{[2-amino-5-fluoro-6-(1-methylpyrazol-4-yl)(3-pyridyl)]carbonylamino}-2-methylpropanoate]
13 nM | N#Cc1ccccc1-c1ccc(C(=O)NCc2cccnc2NCCN)c(NCCc2cccc(F)c2)n1 [N-({2-[(2-aminoethyl)amino](3-pyridyl)}methyl)(6-(2-cyanophenyl)-2-{[2-(3-fluorophenyl)ethyl]amino}(3-pyridyl))carboxamide]
512 nM | N#Cc1ccccc1-c1nc(NCCc2cccc(F)c2)c(C(=O)NCc2cccnc2)cc1Cl [(5-chloro-6-(2-cyanophenyl)-2-{[2-(3-fluorophenyl)ethyl]amino}(3-pyridyl))-N-(3-pyridylmethyl)carboxamide]
9630 nM | NCCCN1C(=O)CNC[C@@H]1CNC(=O)c1ccc(-c2cc[nH]n2)nc1NCCc1cccc(F)c1 [N-{[(2R)-1-(3-aminopropyl)-6-oxopiperazin-2-yl]methyl}(2-{[2-(3-fluorophenyl)ethyl]amino}-6-pyrazol-3-yl(3-pyridyl))carboxamide]
2310 nM | C[C@H](CNC(=O)c1ccc(-c2ccccc2C#N)nc1NCCc1cccc(F)c1)NC(=O)CNC(=O)OC(C)(C)C
119 nM | Cc1csc(-c2ccc(C(=O)NCc3cccnc3)c(NCCc3cc(F)cc(F)c3)n2)c1 [(2-{[2-(3,5-difluorophenyl)ethyl]amino}-6-(4-methyl(2-thienyl))(3-pyridyl))-N-(3-pyridylmethyl)carboxamide]

Structure (SMILES) | IC50
CC(C)(C)OC(=O)NC[C@H](NC(=O)c1ccc(-c2ccccc2C#N)nc1NCCc1cccc(F)c1)C(=O)O [(2S)-3-[(tert-butoxy)carbonylamino]-2-[(6-(2-cyanophenyl)-2-{[2-(3-fluorophenyl)ethyl]amino}(3-pyridyl))carbonylamino]propanoic acid] | 30400 nM
Cn1cc(-c2nc(NCCc3cccc(F)c3)c(C(=O)NC[C@H]3CCCN3C(=O)CCNC(=O)OC(C)(C)C)cc2F)cn1 [N-[((2R)-1-{3-[(tert-butoxy)carbonylamino]propanoyl}pyrrolidin-2-yl)methyl](5-fluoro-2-{[2-(3-fluorophenyl)ethyl]amino}-6-(1-methylpyrazol-4-yl)(3-pyridyl))carboxamide] | 505 nM
CC(C)(C)OC(=O)NCCCCC(=O)N1CCC[C@@H]1CNC(=O)c1ccc(-c2ccccc2C#N)nc1NCCc1cccc(F)c1 [N-[((2R)-1-{5-[(tert-butoxy)carbonylamino]pentanoyl}pyrrolidin-2-yl)methyl](6-(2-cyanophenyl)-2-{[2-(3-fluorophenyl)ethyl]amino}(3-pyridyl))carboxamide] | 2940 nM
